Measurements reported in publication PMC2945764, “Carboxypeptidase A6 in Zebrafish Development and Implications for VIth Cranial Nerve Pathfinding” (PLoS ONE, 2010).

Target: T1, zebrafish CPA6 (zCPA6) (Danio rerio, UniProt E7F2H8)
T1 construct: full-length cDNA in pcDNA3.1, untagged, expressed in HEK293T cells; mature 65 kDa with EGFP
T1 sequence (E7F2H8 133-442): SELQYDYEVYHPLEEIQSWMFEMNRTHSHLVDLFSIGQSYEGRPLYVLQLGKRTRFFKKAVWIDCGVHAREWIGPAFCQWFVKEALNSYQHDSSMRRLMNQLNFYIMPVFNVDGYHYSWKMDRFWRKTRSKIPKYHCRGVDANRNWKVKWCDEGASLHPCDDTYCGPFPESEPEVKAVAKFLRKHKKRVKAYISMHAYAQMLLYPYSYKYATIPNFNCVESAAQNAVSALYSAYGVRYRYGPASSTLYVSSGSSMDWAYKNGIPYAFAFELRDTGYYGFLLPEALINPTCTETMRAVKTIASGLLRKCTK
Test: decrease in absorbance at […] nm, ECM-bound enzyme of transfected HEK293T cells against untransfected wells
Format: biochemical
Conditions: 0.5 mM substrate, 50 mM Tris-HCl pH 7.5, 150 mM NaCl, 37 °C; untagged enzyme

Row | SMILES | decrease in absorbance at 336 nm, ECM-bound enzyme of transfected HEK293T cells
1 | O=C(C=Cc1ccco1)N[C@@H](Cc1ccccc1)C(=O)N[C@@H](Cc1ccccc1)C(=O)O [fa-FF] | fa-FF and fa–RL were most rapidly cleaved
2 | CC(C)C[C@H](NC(=O)[C@H](CCCNC(=N)N)NC(=O)C=Cc1ccco1)C(=O)O [fa-RL, fa–RL] | fa-FF and fa–RL were most rapidly cleaved
